# Results taken from US10870647B2, “Imidazopyridine derivative, method for preparing same, and pharmaceutical composition containing same as active ingredient for preventing or treating cancer” (DAEGU-GYEONGBUK MEDICAL INNOVATION FOUNDATION, priority 2016, dated 2020).
# Columns and labels:
# Assay in all cases: Kinase selectivity, scanMAX Kinase assay panel (DiscoverX), % control at 1 uM
# Format in all cases: binding
# [1] = molecular target: T1, scanMAX Kinase assay panel (Homo sapiens, UniProt P36896); conditions: ACVR1B; 1 uM; read-out: Percent Control (%)
# T1 construct: purchased DiscoverX
# T1 sequence (P36896 24-505): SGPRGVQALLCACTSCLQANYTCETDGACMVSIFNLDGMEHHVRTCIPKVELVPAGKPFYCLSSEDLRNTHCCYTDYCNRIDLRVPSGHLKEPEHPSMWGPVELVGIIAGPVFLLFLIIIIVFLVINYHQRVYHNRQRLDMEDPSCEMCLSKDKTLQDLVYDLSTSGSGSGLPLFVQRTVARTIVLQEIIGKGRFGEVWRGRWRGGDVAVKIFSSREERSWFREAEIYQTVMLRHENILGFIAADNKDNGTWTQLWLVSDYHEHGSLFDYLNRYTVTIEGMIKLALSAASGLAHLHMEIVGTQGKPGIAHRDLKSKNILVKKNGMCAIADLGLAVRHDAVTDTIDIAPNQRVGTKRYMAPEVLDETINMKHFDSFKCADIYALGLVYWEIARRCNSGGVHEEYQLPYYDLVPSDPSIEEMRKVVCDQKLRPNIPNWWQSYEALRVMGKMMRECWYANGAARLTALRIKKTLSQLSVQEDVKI
# Outline: (§1)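 Compounds were tested at 1 uM in DMSO against each enzyme in the panel. Percent control was calculated as (compound − positive control)/(negative control − positive control) × 100, and a compound was scored active on a kinase when this value fell below 35.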
# [2] = molecular target: T2, scanMAX Kinase assay panel (Homo sapiens, UniProt Q8IVH8); conditions: MAP4K3; 1 uM; read-out: Percent Control (%)
# T2 construct: purchased DiscoverX
# T2 sequence (Q8IVH8 1-894): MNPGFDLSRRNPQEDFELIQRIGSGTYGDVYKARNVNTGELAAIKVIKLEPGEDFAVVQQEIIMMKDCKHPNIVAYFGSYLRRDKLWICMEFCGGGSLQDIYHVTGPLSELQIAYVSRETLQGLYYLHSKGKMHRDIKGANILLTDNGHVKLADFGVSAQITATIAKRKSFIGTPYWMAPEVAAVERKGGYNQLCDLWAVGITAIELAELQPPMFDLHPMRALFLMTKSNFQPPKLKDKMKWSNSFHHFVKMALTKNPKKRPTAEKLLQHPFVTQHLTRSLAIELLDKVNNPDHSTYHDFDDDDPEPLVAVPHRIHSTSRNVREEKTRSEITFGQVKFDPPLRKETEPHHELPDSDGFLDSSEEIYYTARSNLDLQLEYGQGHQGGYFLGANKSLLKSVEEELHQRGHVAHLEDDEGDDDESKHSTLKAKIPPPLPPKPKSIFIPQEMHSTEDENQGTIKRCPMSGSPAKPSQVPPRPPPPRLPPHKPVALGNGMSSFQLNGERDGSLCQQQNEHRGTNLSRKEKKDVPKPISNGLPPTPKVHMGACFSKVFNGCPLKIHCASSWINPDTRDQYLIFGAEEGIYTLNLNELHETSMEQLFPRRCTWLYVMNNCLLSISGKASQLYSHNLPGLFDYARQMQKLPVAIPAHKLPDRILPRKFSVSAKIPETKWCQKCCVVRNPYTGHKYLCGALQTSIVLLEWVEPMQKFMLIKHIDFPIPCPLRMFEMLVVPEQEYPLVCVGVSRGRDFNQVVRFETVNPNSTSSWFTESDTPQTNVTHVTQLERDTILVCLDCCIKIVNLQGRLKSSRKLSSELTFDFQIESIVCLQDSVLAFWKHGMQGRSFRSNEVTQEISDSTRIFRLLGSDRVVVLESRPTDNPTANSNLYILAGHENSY
# Outline: as §1
# [3] = molecular target: T3, scanMAX Kinase assay panel (Homo sapiens, UniProt Q8IWQ3); conditions: BRSK2; 1 uM; read-out: Percent Control (%)
# T3 construct: purchased DiscoverX
# T3 sequence (Q8IWQ3 1-736): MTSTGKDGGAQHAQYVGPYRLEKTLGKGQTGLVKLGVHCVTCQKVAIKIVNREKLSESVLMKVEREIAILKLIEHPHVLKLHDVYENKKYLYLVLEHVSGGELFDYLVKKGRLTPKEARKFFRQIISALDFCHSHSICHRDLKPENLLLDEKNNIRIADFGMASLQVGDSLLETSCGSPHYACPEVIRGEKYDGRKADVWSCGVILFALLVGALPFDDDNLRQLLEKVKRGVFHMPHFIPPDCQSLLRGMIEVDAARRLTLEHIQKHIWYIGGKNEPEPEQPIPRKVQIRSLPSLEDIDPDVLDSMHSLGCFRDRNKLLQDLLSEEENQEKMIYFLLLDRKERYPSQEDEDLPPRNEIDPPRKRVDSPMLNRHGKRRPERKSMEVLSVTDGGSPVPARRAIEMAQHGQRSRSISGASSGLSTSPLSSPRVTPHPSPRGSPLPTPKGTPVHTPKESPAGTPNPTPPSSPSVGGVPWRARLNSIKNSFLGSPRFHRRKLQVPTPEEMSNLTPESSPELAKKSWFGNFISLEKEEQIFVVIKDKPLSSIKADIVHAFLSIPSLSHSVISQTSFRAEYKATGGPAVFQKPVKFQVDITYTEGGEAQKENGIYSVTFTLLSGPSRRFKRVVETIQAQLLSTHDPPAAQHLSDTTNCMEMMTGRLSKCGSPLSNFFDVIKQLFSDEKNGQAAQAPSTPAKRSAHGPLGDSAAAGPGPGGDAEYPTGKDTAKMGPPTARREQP
# Outline: as §1
Compound,remaining binding at 1 µM [1],remaining binding at 1 µM [2],remaining binding at 1 µM [3]
Cc1ccc(NC(=O)C2(C(=O)Nc3ccc(F)cc3)CC2)cc1C#Cc1cnc2c(Nc3cnn(C(C)C)c3)cccn12 [Example 78],100%,100%,100%
"Cc1cn(-c2cc(NC(=O)c3ccc(C)c(C#Cc4cnc5c(Nc6cnn(C)c6)cccn45)c3)cc(C(F)(F)F)c2)cn1 [Example 12, 4-methyl-N-(3-(4-methyl-1H-imidazol-1-yl)-5-(trifluoromethyl)phenyl)-3-((8-((1-methyl-1H-pyrazol-4-yl)amino)imidazo[1,2-a]pyridin-3-yl)ethynyl)benzamide]",94%,66%,87%
"Cc1ccc(C(=O)Nc2ccc(CN3CCN(C)CC3)c(C(F)(F)F)c2)cc1C#Cc1cnc2c(Nc3cnn(C)c3)cccn12 [Example 1, 4-methyl-3-((8-((1-methyl-1H-pyrazol-4-yl)amino)imidazo[1,2-a]pyridin-3-yl)ethynyl)-N-(4-((4-methylpiperazin-1-yl)methyl)-3-(trifluoromethyl)phenyl)benzamide]",89%,25%,96%
